Assay results taken from PubChem BioAssay (NCI).
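GI50: concentration for 50% inhibition of growth. At the TGI there is no net growth.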

Legend:
Experiment in all cases: NCI-60 cell line screen, 384-well format
786-0 renal = tested on: 786-0 renal
A498 renal = tested on: A498 renal
A549 NSCLC = tested on: A549 NSCLC
ACHN renal = tested on: ACHN renal
BT-549 breast = tested on: BT-549 breast
CAKI-1 renal = tested on: CAKI-1 renal
CCRF-CEM leukemia = tested on: CCRF-CEM leukemia
COLO 205 colon = tested on: COLO 205 colon
DU-145 prostate = tested on: DU-145 prostate
HCC-2998 colon = tested on: HCC-2998 colon
HCT-116 colon = tested on: HCT-116 colon
HCT-15 colon = tested on: HCT-15 colon
HL-60(TB) leukemia = tested on: HL-60(TB) leukemia
HOP-62 NSCLC = tested on: HOP-62 NSCLC
HOP-92 NSCLC = tested on: HOP-92 NSCLC
HT29 colon = tested on: HT29 colon
IGROV1 ovarian = tested on: IGROV1 ovarian
K-562 leukemia = tested on: K-562 leukemia
KM12 colon = tested on: KM12 colon
LOX IMVI melanoma = tested on: LOX IMVI melanoma
M14 melanoma = tested on: M14 melanoma
MALME-3M melanoma = tested on: MALME-3M melanoma
MCF7 breast = tested on: MCF7 breast
MDA-MB-231 breast = tested on: MDA-MB-231 breast
MDA-MB-435 melanoma = tested on: MDA-MB-435 melanoma
MDA-MB-468 breast = tested on: MDA-MB-468 breast
MOLT-4 leukemia = tested on: MOLT-4 leukemia
NCI-H226 lung = tested on: NCI-H226 lung
NCI-H23 lung = tested on: NCI-H23 lung
NCI-H322M lung = tested on: NCI-H322M lung
NCI-H460 NSCLC = tested on: NCI-H460 NSCLC
NCI-H522 lung = tested on: NCI-H522 lung
NCI/ADR-RES ovarian = tested on: NCI/ADR-RES ovarian
OVCAR-3 ovarian = tested on: OVCAR-3 ovarian
OVCAR-4 ovarian = tested on: OVCAR-4 ovarian
OVCAR-5 ovarian = tested on: OVCAR-5 ovarian
OVCAR-8 ovarian = tested on: OVCAR-8 ovarian
PC-3 prostate = tested on: PC-3 prostate
RPMI-8226 leukemia = tested on: RPMI-8226 leukemia
RXF 393 renal = tested on: RXF 393 renal
SF-268 CNS = tested on: SF-268 CNS
SF-295 CNS = tested on: SF-295 CNS
SF-539 CNS = tested on: SF-539 CNS
SK-MEL-2 melanoma = tested on: SK-MEL-2 melanoma
SK-MEL-28 melanoma = tested on: SK-MEL-28 melanoma
SK-MEL-5 melanoma = tested on: SK-MEL-5 melanoma
SK-OV-3 ovarian = tested on: SK-OV-3 ovarian
SN12C renal = tested on: SN12C renal
SNB-19 CNS = tested on: SNB-19 CNS
SR leukemia = tested on: SR leukemia
SW-620 colon = tested on: SW-620 colon
T-47D breast = tested on: T-47D breast
TK-10 renal = tested on: TK-10 renal
U251 glioblastoma = tested on: U251 glioblastoma
UACC-257 melanoma = tested on: UACC-257 melanoma
UACC-62 melanoma = tested on: UACC-62 melanoma
UO-31 renal = tested on: UO-31 renal

Nc1ncn([C@H]2C[C@H](OP(=O)(O)OC[C@H]3O[C@@H](n4cnc5c(=O)[nH]c(N)nc54)C[C@@H]3O)[C@@H](CO)O2)c(=O)n1
GI50 ([…]-0 renal): 3.34 µM
TGI (786-0 renal): 31.1 µM
GI50 (A498 renal): 37.7 µM
TGI (A498 renal): > 100 µM
GI50 (A549 NSCLC): 10.8 µM
TGI (A549 NSCLC): > 100 µM
GI50 (ACHN renal): 2.33 µM
TGI (ACHN renal): 83.2 µM
GI50 (BT-549 breast): 6.95 µM
TGI (BT-549 breast): 40.6 µM
GI50 (CAKI-1 renal): 7.79 µM
TGI (CAKI-1 renal): > 100 µM
GI50 (CCRF-CEM leukemia): 0.0724 µM
TGI (CCRF-CEM leukemia): 1.88 µM
GI50 (COLO 205 colon): 68.9 µM
TGI (COLO 205 colon): > 100 µM
GI50 (DU-145 prostate): 33.3 µM
TGI (DU-145 prostate): > 100 µM
GI50 (HCC-2998 colon): 2.82 µM
TGI (HCC-2998 colon): > 100 µM
GI50 (HCT-116 colon): 2.79 µM
TGI (HCT-116 colon): > 100 µM
GI50 (HCT-15 colon): > 100 µM
TGI (HCT-15 colon): > 100 µM
GI50 (HL-60(TB) leukemia): 1.16 µM
TGI (HL-60(TB) leukemia): 18.2 µM
GI50 (HOP-62 NSCLC): 1.83 µM
TGI (HOP-62 NSCLC): 53.3 µM
GI50 (HOP-92 NSCLC): 54.5 µM
TGI (HOP-92 NSCLC): > 100 µM
GI50 (HT29 colon): 46.5 µM
TGI (HT29 colon): > 100 µM
GI50 (IGROV1 ovarian): > 100 µM
TGI (IGROV1 ovarian): > 100 µM
GI50 (K-562 leukemia): 1.48 µM
TGI (K-562 leukemia): > 100 µM
GI50 (KM12 colon): > 100 µM
TGI (KM12 colon): > 100 µM
GI50 (LOX IMVI melanoma): 13.5 µM
TGI (LOX IMVI melanoma): 37.4 µM
GI50 (M14 melanoma): 0.922 µM
TGI (M14 melanoma): > 100 µM
GI50 (MALME-3M melanoma): 20.6 µM
TGI (MALME-3M melanoma): > 100 µM
GI50 (MCF7 breast): 14 µM
TGI (MCF7 breast): > 100 µM
GI50 (MDA-MB-231 breast): 38.3 µM
TGI (MDA-MB-231 breast): > 100 µM
GI50 (MDA-MB-435 melanoma): 43.6 µM
TGI (MDA-MB-435 melanoma): > 100 µM
GI50 (MDA-MB-468 breast): 0.0431 µM
TGI (MDA-MB-468 breast): 0.368 µM
GI50 (MOLT-4 leukemia): 0.0566 µM
TGI (MOLT-4 leukemia): 0.373 µM
GI50 (NCI-H226 lung): 32.7 µM
TGI (NCI-H226 lung): > 100 µM
GI50 (NCI-H23 lung): > 100 µM
TGI (NCI-H23 lung): > 100 µM
GI50 (NCI-H322M lung): 28.8 µM
TGI (NCI-H322M lung): > 100 µM
GI50 (NCI-H460 NSCLC): 0.763 µM
TGI (NCI-H460 NSCLC): > 100 µM
GI50 (NCI-H522 lung): 4 µM
TGI (NCI-H522 lung): 71.3 µM
GI50 (NCI/ADR-RES ovarian): > 100 µM
TGI (NCI/ADR-RES ovarian): > 100 µM
GI50 (OVCAR-3 ovarian): > 100 µM
TGI (OVCAR-3 ovarian): > 100 µM
GI50 (OVCAR-4 ovarian): > 100 µM
TGI (OVCAR-4 ovarian): > 100 µM
GI50 (OVCAR-5 ovarian): 77.6 µM
TGI (OVCAR-5 ovarian): > 100 µM
GI50 (OVCAR-8 ovarian): 10.8 µM
TGI (OVCAR-8 ovarian): > 100 µM
GI50 (PC-3 prostate): 28.4 µM
TGI (PC-3 prostate): > 100 µM
GI50 (RPMI-8226 leukemia): 0.0714 µM
TGI (RPMI-8226 leukemia): 0.451 µM
GI50 (RXF 393 renal): 1.05 µM
TGI (RXF 393 renal): 6.21 µM
GI50 (SF-268 CNS): 12.4 µM
TGI (SF-268 CNS): 56.6 µM
GI50 (SF-295 CNS): > 100 µM
TGI (SF-295 CNS): > 100 µM
GI50 (SF-539 CNS): 20.8 µM
TGI (SF-539 CNS): > 100 µM
GI50 (SK-MEL-2 melanoma): > 100 µM
TGI (SK-MEL-2 melanoma): > 100 µM
GI50 (SK-MEL-28 melanoma): 26.1 µM
TGI (SK-MEL-28 melanoma): > 100 µM
GI50 (SK-MEL-5 melanoma): 0.437 µM
TGI (SK-MEL-5 melanoma): 10.7 µM
GI50 (SK-OV-3 ovarian): > 100 µM
TGI (SK-OV-3 ovarian): > 100 µM
GI50 (SN12C renal): 5.84 µM
TGI (SN12C renal): 26.4 µM
GI50 (SNB-19 CNS): > 100 µM
TGI (SNB-19 CNS): > 100 µM
GI50 (SR leukemia): 6.81 µM
TGI (SR leukemia): 25.5 µM
GI50 (SW-620 colon): 18.5 µM
TGI (SW-620 colon): > 100 µM
GI50 (T-47D breast): 13 µM
TGI (T-47D breast): 47 µM
GI50 (TK-10 renal): 32.2 µM
TGI (TK-10 renal): > 100 µM
GI50 (U251 glioblastoma): 11.2 µM
TGI (U251 glioblastoma): > 100 µM
GI50 (UACC-257 melanoma): > 100 µM
TGI (UACC-257 melanoma): > 100 µM
GI50 (UACC-62 melanoma): 26.6 µM
TGI (UACC-62 melanoma): > 100 µM
GI50 (UO-31 renal): > 100 µM
TGI (UO-31 renal): > 100 µM
